In data set [1] the test system is trabeculae from the right ventricular free wall of explanted human hearts. Nature of the data set: Peak contractile force of isolated human right ventricular trabeculae in muscle bath. It is filed as cell-based. Conditions: 37° C., 1.0 Hz field stimulation, increasing concentrations. Here is the method: Explanted human hearts were obtained from transplant recipients (n=7) and from nonfailing donor hearts (n=1). After excision, hearts were placed immediately into ice cold Tyrode's solution and aerated with 95% O2 and 5% CO2. Trabeculae between 1-3 mm in width and 7-10 mm in length were excised from the right ventricular free wall. Subsequently trabeculae were mounted in a multi-chamber muscle bath in oxygenated Tyrode's solution at 37° C. The trabeculae were placed under 1 gram of resting tension and a field stimulation of 1.0 Hz. […] Peak contractile forces were recorded at 10 minute intervals for a total of 1½ hours. Following experimentation, trabeculae were frozen in liquid N2.

The target in data set [2] is T1, PDE-III isolated from human platelets (Homo sapiens, UniProt Q14432).
T1 construct: PDE-III isolated from human platelets; from tissue; host or cells: human platelets
Nature of the data set: PDE-III inhibition, [3H]cAMP substrate. It is filed as biochemical. The conditions noted are these: triplicate at three concentrations over log scale, semi-quantitative. The protocol:
Enoximone Sulfoxide enantiomer was tested for its ability to inhibit the action of PDE-III isolated from human platelets. The substrate was [^3H]cAMP+cAMP, which is converted by PDE-III to […] and then […] can be quantified. Assays were done in triplicate at three different concentrations over log scale, allowing semi-quantitative measurement of IC50.

The conditions of data set [3]: cited from earlier work; for average steady-state plasma concentration: oral.
The test system of data set [4] is men who suffer from ED. Conditions: ED of psychogenic or organic etiology, clinical studies; cited from earlier work.
Data set [5] has as its system PDE-III. Conditions: cited from earlier work.

Read-outs that look alike come from different tables or passages of the source. Where only a bound is given, the exact number is not on record here.

T1 sequence (Q14432 whole entry): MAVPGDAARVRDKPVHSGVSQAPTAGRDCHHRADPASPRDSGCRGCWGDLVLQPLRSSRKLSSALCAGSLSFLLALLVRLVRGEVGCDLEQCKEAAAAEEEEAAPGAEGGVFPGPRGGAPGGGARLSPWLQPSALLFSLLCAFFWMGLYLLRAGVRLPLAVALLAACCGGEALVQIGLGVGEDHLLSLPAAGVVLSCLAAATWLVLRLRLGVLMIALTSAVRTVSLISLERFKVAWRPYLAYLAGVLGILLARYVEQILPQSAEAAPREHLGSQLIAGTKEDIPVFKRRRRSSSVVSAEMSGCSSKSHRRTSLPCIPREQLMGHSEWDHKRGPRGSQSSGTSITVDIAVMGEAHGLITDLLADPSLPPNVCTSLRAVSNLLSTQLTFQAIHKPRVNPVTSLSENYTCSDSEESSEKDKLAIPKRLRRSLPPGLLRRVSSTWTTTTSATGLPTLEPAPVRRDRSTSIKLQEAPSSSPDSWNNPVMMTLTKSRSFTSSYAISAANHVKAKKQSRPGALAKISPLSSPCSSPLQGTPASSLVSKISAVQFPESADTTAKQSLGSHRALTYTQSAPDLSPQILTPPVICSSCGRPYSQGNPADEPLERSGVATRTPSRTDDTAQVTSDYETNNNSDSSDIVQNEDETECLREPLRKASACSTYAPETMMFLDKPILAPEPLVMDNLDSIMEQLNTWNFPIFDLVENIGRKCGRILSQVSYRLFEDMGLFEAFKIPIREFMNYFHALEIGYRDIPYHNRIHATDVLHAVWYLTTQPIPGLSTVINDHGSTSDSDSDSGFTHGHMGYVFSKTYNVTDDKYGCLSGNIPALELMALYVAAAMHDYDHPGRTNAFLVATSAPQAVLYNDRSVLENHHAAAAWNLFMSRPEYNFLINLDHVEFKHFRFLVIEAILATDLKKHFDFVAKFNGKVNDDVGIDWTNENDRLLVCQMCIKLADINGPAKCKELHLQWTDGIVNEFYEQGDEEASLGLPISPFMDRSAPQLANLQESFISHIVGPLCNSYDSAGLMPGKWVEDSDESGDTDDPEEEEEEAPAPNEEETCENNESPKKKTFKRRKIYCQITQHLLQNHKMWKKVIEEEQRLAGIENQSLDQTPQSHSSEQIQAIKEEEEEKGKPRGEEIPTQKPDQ

For the compound `Cc1[nH]c(=O)[nH]c1C(=O)c1ccc([S+](C)[O-])cc1.O` (stereo not shown) [Sulfoxide Metabolite 27996, 1,3-Dihydro-4-methyl-5-[(4-methylsulfinyl)-benzoyl]-2H-imidazol-2-one hydrate], the “peak contractile force (net, T=0 baseline subtracted)” value (“peak contractile force” below) in data set [1] is 175 mg of tension.
Consider `Cc1[nH]c(=O)[nH]c1C(=O)c1ccc([S@@+](C)[O-])cc1` [(R)-(+)-enantiomer of enoximone sulfoxide, 1,3-Dihydro-4-methyl-5-[(4-methylsulfinyl)-benzoyl]-2H-imidazol-2-one hydrate], for which the “peak contractile force” value in data set [1] is 550 mg of tension. For the same compound, the IC50 in data set [2] stood at 107 µM.
On to `CSc1ccc(C(=O)c2[nH]c(=O)[nH]c2C)cc1` [Enoximone, 1,3-Dihydro-4-methyl-5-[4-(methylthio)benzoyl]-2H-imidazol-2-one], for which the “average steady-state plasma concentration” value in data set [3] (50 mg every 8 hours) was 115 ± 40 ng/mL; in data set [3] (100 mg every 8 hours), 190 ± 78 ng/mL. The mean clearance entry in data set [3] (patients with cardiac failure) is “about 10 ml/min/kg”. The Bioavailability entry in data set [3] (single oral dose of 3 mg/kg) is recorded as “about 55%”.
As to `CC(C)NCC(O)c1ccc(O)c(O)c1` (stereo not shown) [Isoproterenol], the “peak contractile force” value in data set [1] is > 1000 mg of tension.
Consider `CCCc1nn(C)c2c(=O)[nH]c(-c3cc(S(=O)(=O)N4CCN(C)CC4)ccc3OCC)nc12` [sildenafil, 5-[2-ethoxy-5-(4-methylpiperazin-1-ylsulphonyl)phenyl]-1-methyl-3-n-propyl-6,7-dihydro-1H-pyrazolo[4,3-d]pyrimidin-7-one], for which the “men with improved sexual function” value in data set [4] is “about 70%”. Further, in data set [5], the “inhibition of PDE-III” value is recorded as “negligible inhibition”.

Values taken from patent publication US20060030611A1, “Enoximone sulfoxide enantiomers and their use in the treatment of PDE-III mediated diseases” (Myogen, Inc., priority 2004, published 2006).
